Laboratory results from patent publication US11203578B2, “Oxadiazole derivatives for the treatment of genetic diseases due to nonsense mutations” (UNIVERSITA' DEGLI STUDI DIPALERMO, priority 2017, dated 2021).
Several values for one entry are separate records, joined by “and”; a condition that tells them apart may be missing. Identical values can stand only once. Like-named read-outs stand apart in the source and are kept apart here.

Columns and labels:
[1] = test system: pFLuc-opal (UGA stop mutation); assay: FLuc cell-based readthrough assay in HeLa FLuc-opal transfected cells; set-up: key to Pharm Set: Active: as active, compounds with FLUC values >4.52 (ATALUREN FLUC value); Inactive: as inactives, compounds with FLUC values ≤4.00; Moderate: as moderate actives, compounds with 4.39≤FLUC values ≤4,51; conditions: for Pharm Set: class of activity related to the FLUC values
Excerpt: The results disclosed in (Pibiri I., Lentini L., Tutone M., Melfi R., Pace A., Di Leonardo A. Exploring the readthrough of nonsense mutations by non-acidic Ataluren analogues selected by ligand-based virtual screening. Eur. J. Med. Chem. 122 (2016) 429-435) have been refined with 3D-QSAR (quantitative structure-activity relationships) pharmacophore modelling. The endpoint to build QSAR models was the luciferase activity known data. These values were converted to pFLUC (−log FLUC) values. In order to find the common pharmacophore hypothesis, we divided the 24 compounds in three different classes of activity related to the FLUC values (Pharm set). We considered as active, compounds with FLUC values >4.52 (ATALUREN FLUC value), as inactives, compounds with FLUC values ≤4.00, and as moderate actives, compounds with 4.39≤FLUC values ≤4,51. Dataset was randomly split into a training set (19 compounds) for models generation, and test set (5 compounds) for the validation of developed models, as reported in Table 1.
To ascertain the effectiveness of the newly synthesized ataluren analogues in promoting the readthrough of premature termination codons was used the FLuc cell-based assay. To this aim HeLa cells were transfected transiently with the plasmids pFLuc-wild type (control) and pFLuc-opal (UGA stop mutation) (NIH Chemical Genomics Center, National Institutes of Health, Bethesda, USA). FLuc gene expression was then measured by luminescence.

[2] = test system: HeLa cells; assay: Cytotoxic effects and impact on cell proliferation in HeLa cells; type: cell-based; conditions: 12 μM
Method: HeLa cells were used to determine the possible cytotoxic effects of our compounds and the impact on cell proliferation. In FIG. 7 are reported the percentages of dead cells and proliferating cells after treatment with 12 μM compounds and 12 μM ATALUREN.

[3] = test system: pFLuc-opal (UGA stop mutation); conditions: luciferase activity known data, converted to pFLUC (−log FLUC); literature [1], [2]; cited from earlier work

Row | Structure (SMILES) | Pharm Set [1] | dead cells ([2]; 24 h) | dead cells ([2]; 72 h) | RLU values Exp. [3] | RLU values Exp. ([1]; luciferase activity converted to pFLUC, [3] unpublished data)
1 | O=C(O)c1cccc(-c2noc(-c3ccccc3F)n2)c1 [ATALUREN, 3-(5-(2-Fluorophenyl)-1,2,4-oxadiazol-3-yl)benzoic acid] | Active | 4% | 7% | 4.52 and 4.528 | 
2 | COC(=O)c1cccc(-c2noc(-c3ccccc3F)n2)c1 [Compound 1-NV1103] | Active |  |  | 4.532 | 
3 | COC(=O)c1cccc(-c2noc(-c3cccc(F)c3)n2)c1 [Compound 2-NV1127] | Moderate (as moderate actives, compounds with 4.39≤FLUC values ≤4,51) |  |  | 4.477 | 
4 | O=C(O)c1cccc(-c2noc(-c3cccc(F)c3)n2)c1 [Compound 3-NV1133, 3-(5-(3-Fluorophenyl)-1,2,4-oxadiazol-3-yl)benzoic acid] | Active |  |  | 4.628 | 
5 | COC(=O)c1cccc(-c2noc(-c3cc(F)c(F)cc3F)n2)c1 [Compound 4-NV1128, Methyl 3-(5-(2,4,5-trifluorophenyl)-1,2,4-oxadiazol-3-yl) benzoate)] | Moderate (as moderate actives, compounds with 4.39≤FLUC values ≤4,51) |  |  | 4.397 | 
6 | O=C(O)c1cccc(-c2noc(-c3cc(F)c(F)cc3F)n2)c1 [Compound 5-NV1173, 3-(5-(2,4,5-Trifluorophenyl)-1,2,4-oxadiazol-3-yl)benzoic acid] | Active |  |  | 4.788 | 
7 | COC(=O)c1cccc(-c2noc(-c3ccc(F)cc3)n2)c1 [Compound 6-NV1153] | Inactive |  |  | 4.125 | 
8 | COC(=O)c1cccc(-c2noc(-c3cccc(F)c3F)n2)c1 [Compound 7-NV1149] | Inactive |  |  | 4.103 | 
9 | COC(=O)c1cccc(-c2noc(-c3cccc(F)c3F)n2)c1 [Compound 8-NV1170, Methyl 3-(5-(2,3-difluorophenyl)-1,2,4-oxadiazol-3-yl)ben zoate)] | Moderate (as moderate actives, compounds with 4.39≤FLUC values ≤4,51) |  |  | 4.311 | 
10 | COC(=O)c1cccc(-c2noc(-c3ccc(F)c(F)c3)n2)c1 [Compound 9-NV1175, Methyl 3-(5-(3,4-difluorophenyl)-1,2,4-oxadiazol-3-yl)ben-zoate)] | Moderate (as moderate actives, compounds with 4.39≤FLUC values ≤4,51) |  |  | 4.269 | 
11 | COC(=O)c1cccc(-c2noc(-c3ccc(F)cc3F)n2)c1 [Compound 10-NV1171, Methyl 3-(5-(2,4-difluorophenyl)-1,2,4-oxadiazol-3-yl)ben-zoate)] | Moderate (as moderate actives, compounds with 4.39≤FLUC values ≤4,51) |  |  | 4.439 | 
12 | COC(=O)c1cccc(-c2noc(-c3c(F)cccc3F)n2)c1 [Compound 11-NV1174, Methyl 3-(5-(2,6-difluorophenyl)-1,2,4-oxadiazol-3-yl)ben-zoate)] | Moderate (as moderate actives, compounds with 4.39≤FLUC values ≤4,51) |  |  | 4.414 | 
13 | Cc1cccc(-c2noc(-c3ccccc3F)n2)c1 [Compound 12-NV1798, 3-Toluyl, 5-(2-fluorophenyl)-1,2,4-oxadiazole] | Inactive |  |  | 4.178 | 
14 | COC(=O)c1cccc(-c2noc(-c3c(F)c(F)c(F)c(F)c3F)n2)c1 [Compound 13-NV1951] | Inactive |  |  | 4.008 | 
15 | O=C(O)c1cccc(-c2noc(-c3c(F)c(F)c(F)c(F)c3F)n2)c1 [Compound 14-NV1954, 3-(5-(Perfluorophenyl)-1,2,4-oxadiazol-3-yl)benzoic acid] | Inactive |  |  | 4.171 | 
16 | N#Cc1cccc(-c2nc(-c3ccccn3)no2)c1 [Compound 15-NV1859, 3-(2′-pyridyl)-5-(3′-cyanophenyl)-1,2,4-oxadiazole] | Moderate (as moderate actives, compounds with 4.39≤FLUC values ≤4,51) |  |  | 4.363 | 
17 | Cc1cccc(-c2nc(-c3ccncc3)no2)c1 [Compound 16-NV1861, 3-(4′-pyridyl)-5-(3′-toluyl)-1,2,4-oxadiazole] | Moderate (as moderate actives, compounds with 4.39≤FLUC values ≤4,51) |  |  | 4.250 | 
18 | Cc1cccc(-c2nc(-c3cccnc3)no2)c1 [Compound 17-NV1879, 3-(3′-pyridyl)-5-(3′-toluyl)-1,2,4-oxadiazole] | Moderate (as moderate actives, compounds with 4.39≤FLUC values ≤4,51) |  |  | 4.411 | 
19 | Cc1cccc(-c2nc(-c3ccccc3)no2)c1 [Compound 18-NV1883, 3-(3′-phenyl)-5-(3′-toluyl)-1,2,4-oxadiazole] | Moderate (as moderate actives, compounds with 4.39≤FLUC values ≤4,51) |  |  | 4.428 | 
20 | Cc1cccc(-c2noc(-c3ccccc3C)n2)c1 [Compound 19-NV1894, 3-(3-toluyl), 5-(2-toluyl)-1,2,4-oxadiazole] | Moderate (as moderate actives, compounds with 4.39≤FLUC values ≤4,51) |  |  | 4.250 | 
21 | Cc1cccc(-c2noc(-c3cccc(C)c3)n2)c1 [Compound 20-NV1905, 3-(3-toluyl), 5-(3-toluyl)-1,2,4-oxadiazole] | Inactive |  |  |  | 4.181
22 | Cc1cccc(-c2nc(-c3ccccn3)no2)c1 [Compound 21-NV1898, 3-(2-pyridyl)-5-(3′-toluyl)-1,2,4-oxadiazole] | Active |  |  | 4.551 | 
23 | COc1cccc(C(=O)c2nc(-c3ccncc3)no2)c1 [Compound 22-NV1919, 3-(4′-pyridyl)-5-(3′-anisoyl)-1,2,4-oxadiazole] | Moderate (as moderate actives, compounds with 4.39≤FLUC values ≤4,51) |  |  | 4.253 | 
24 | COc1cccc(C(=O)c2nc(-c3ccccn3)no2)c1 [Compound 23-NV1940, 3-(2-pyridyl)-5-(3′-anisoyl)-1,2,4-oxadiazole] | Inactive |  |  | 4.000 | 
